Data as given in publication PMC10244669, “Virtual screening–based discovery of AI-2 quorum sensing inhibitors that interact with an allosteric hydrophobic site of LsrK and their functional evaluation” (Frontiers in Chemistry, 2023).
Where two headings read alike, the source gives them in different places.

Tests used:
[1] = system: AI-2-mediated QS (lsr promoter luminescence, reporter strain WHQ02); test: Cell-based AI-2-mediated QS interference assay; set-up: species or system E. coli; details: Escherichia coli; cell-based QS interference assay, WHQ02; mean ± SD, n = 3
Excerpt: All chemicals were purchased from Sigma-Aldrich (St. Louis, MO, United States) unless otherwise stated. DPD was purchased from the […] ZZBIO Co., LTD. (Shanghai, China). The Kinase-Glo Max Luminescent Kinase Assay Kit was purchased from Promega (Madison, WI, United States). NTA sensor chips were purchased from GE Healthcare (Chicago, IL, United States). All compounds used as potential inhibitors of LsrK were purchased from Topscience Biotechnology Co. Ltd. (Shanghai, China). The QS reporter strain WHQ02 (E. coli BL21 ΔTolC pWHQ01) was donated by Huiqi Wen (Institute of Microbiology and Epidemiology, Academy of Military Sciences, Beijing, China). The plasmid pWHQ01 was constructed by cloning the lsr promoter and the luxCDABE luminescent gene. BamHI and XhoI were purchased from New England Biolabs (Ipswich, MA, United States). pET-28a was purchased from Novagen (Madison, WI, United States). Escherichia coli BL21 (DE3) cells were purchased from TransGen Biotech Co., LTD. (Beijing, China). A Ni-NTA column was purchased from Sangon Biotech (Shanghai, China). Sodium dodecyl sulfate-polyacrylamide gel electrophoresis (SDS-PAGE) and the Bradford Protein Assay Kit were purchased from Thermo Fisher Scientific (Waltham, MA, United States).
WHQ02 cultured overnight were diluted 1:100 in fresh LB supplemented with 100 μg/mL ampicillin and grown at 30°C and until the logarithmic phase (OD600 = 0.4–0.6). The bacterial culture was centrifuged at 4,000 × g for 5 min, and the pellet was resuspended in fresh LB medium to prepare a suspension of 2 McFarland standard and added to the 96-well plate. In the experimental group, 74 compounds (final concentrations ranging from 100 to 3.125 μM) were added to reach a total volume of 100 µL. In addition, 100 µL LB medium with an equal volume of DMSO (negative control) or 100 µL LB supplemented with 2% glucose and the same volume of DMSO (positive control) were added. Bacteria was cultured at 37°C with shaking for 3 h. The […] of WHQ02 is directly regulated by the lsr promoter, reflecting the strength of QS. The luminescence and OD600 were measured using an Enspire 2300 microplate reader (Perkin Elmer). To further study the effect of compounds on bacterial growth, overnight cultured WHQ02 was diluted 1:1,000 with LB medium and added to 96 well plate. Then, the compounds were added to a 96-well plate (final concentration: 100 µM) and diluted in a gradient. The same volume of DMSO was added to the control group. The plates were incubated at 37°C for 18 h. OD600 values were recorded using an Enspire 2300 microplate reader. The experiment was performed in triplicate.

[2] = biological target: LsrK (Salmonella typhimurium, UniProt Q8ZKQ6); test: LsrK inhibition assay (Kinase-Glo luminescence); format: biochemical; details: mean ± SD, n = 3; for Inhibition (%): Supplementary Table 1, 200 uM compound, * = colour of the compound interferes with luminescence
Sequence of LsrK (Salmonella typhimurium, UniProt Q8ZKQ6) (Q8ZKQ6 whole entry): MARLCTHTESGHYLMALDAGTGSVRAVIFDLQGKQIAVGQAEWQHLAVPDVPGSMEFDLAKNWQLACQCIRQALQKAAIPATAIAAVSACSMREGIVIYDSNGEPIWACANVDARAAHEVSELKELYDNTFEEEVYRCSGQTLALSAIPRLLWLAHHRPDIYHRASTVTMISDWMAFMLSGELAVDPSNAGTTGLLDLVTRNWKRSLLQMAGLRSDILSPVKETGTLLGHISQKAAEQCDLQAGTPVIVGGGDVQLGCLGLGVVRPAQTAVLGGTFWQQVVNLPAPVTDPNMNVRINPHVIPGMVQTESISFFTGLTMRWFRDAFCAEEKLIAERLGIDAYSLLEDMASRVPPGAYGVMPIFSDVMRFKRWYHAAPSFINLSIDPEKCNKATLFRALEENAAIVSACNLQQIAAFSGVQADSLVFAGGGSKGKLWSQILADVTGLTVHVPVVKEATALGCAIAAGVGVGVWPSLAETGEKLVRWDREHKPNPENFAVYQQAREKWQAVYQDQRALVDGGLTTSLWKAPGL
Description: To express LsrK with a 6 × His-tag at the C-terminus, the LsrK encoding gene of Salmonella typhimurium was amplified using primers carrying restriction endonuclease sites BamHI and XhoI. The amplified product was cloned into the expression vector pET-28a with a C-terminal 6 × His-tag and transfected into E. coli BL21 (DE3).
This assay was performed as previously described ([Gatta et al., 2019]), and the conditions were optimized. […] 74 purchased compounds were dissolved in dimethyl sulfoxide (20% v/v DMSO in reaction buffer) at a concentration of 2 mM. Briefly, 10 μL DPD, 10 μL LsrK, and 5 μL compound were added to a 96-well plate, and 25 μL ATP or 25 μL reaction buffer was added after 30 min incubation. The plate was incubated for 10 min at 37°C, then 50 μL of kit reagent was added, and the plate was incubated at 37°C for 15 min. The luminescence signal was measured using an Enspire 2300 microplate reader (PerkinElmer). Dose-response tests were carried out to verify the activity of hits chosen by primary screening. (200 μM–6.25 µM) ([Medarametla et al., 2018]). The inhibition percentage of each tested compound was determined as previously described and IC50 was calculated using four logistic parameters.

[3] = system: LsrK; details: Figure 2, cited from earlier work
[4] = system: AI-2 QS; details: Figure 2, ref Gatta et al., cited from earlier work

Cc1ccc(C(=O)O)cc1NC(=O)c1nn2cccnc2c1Cl [Y502-2013]
IC50 [1]: > 100 µM | IC50 ([2]; 100 μM ATP, read-out: IC50B): 140 ± 5.54 µM | inhibition at 200 µM ([2]; Table 1, hits at 200 μM with 100 μM ATP): 69.1 ± 8.64%

O=C(NC(Cc1c[nH]c2ccccc12)C(=O)O)c1ccccc1Cl (centres unmarked) [Z85881721]
Inhibition (%) ([2]; 100 μM ATP): 10.12 ± 8.78%

O=C(O)CCn1c(=O)[nH]c(=O)c2ccccc21 [Z166653136]
Inhibition (%) ([2]; 100 μM ATP): 0%

CN(C)C(=O)C1CCCN1Cc1nc2sc(-c3ccccc3)cc2c(=O)[nH]1 (centres unmarked) [Z196022762]
Inhibition (%) ([2]; 100 μM ATP): 57.11 ± 2.22%

CC(C)c1ccc2nc(Cc3cccc(C(N)=O)c3)[nH]c(=O)c2c1 [Z951211480]
Inhibition (%) ([2]; 100 μM ATP): 0%

Cc1ccc(Cl)c(Nc2ccccc2C(=O)O)c1Cl [compound 1]
IC50 ([3]; ref Medarametla et al., 2018): 178 µM

O=C(O)CC(=O)Nc1ccc2nc(N(Cc3ccccc3)C(=O)c3cc(Br)c(Br)[nH]3)sc2c1 [compound 2]
IC50 [4]; 2020: 17 µM | IC50 ([3]; ref Gatta et al., 2020): 15 ± 1 µM

O=C(O)C(=O)Nc1nc2ccc(NC(=O)c3cc(Br)c(Br)[nH]3)cc2s1 [compound 3]
IC50 [4]; 2020: 0.6 ± 0.1 µM | IC50 ([3]; ref Gatta et al., 2020): 18 ± 2 µM

C[C@]1(OC(=O)/C=C/c2ccccc2)C[C@@H](O)[C@]2(O)C=CO[C@@H](O[C@@H]3O[C@H](CO)[C@@H](O)[C@H](O)[C@H]3O)[C@@H]21 [compound 4, harpagoside]
IC50 [4]; 2019: 14 µM | IC50 ([3]; ref Gatta et al., 2019): 10 µM

O=C1C=CC(=C(c2ccc(O)cc2)c2ccc(O)cc2)C=C1 [compound 5, rosolic acid]
IC50 [4]; 2019: 11 µM | IC50 ([3]; ref Gatta et al., 2019): 1 µM

Cn1nc(-c2ccccc2)cc1C1COC2(CCCCC2)O1 (centres unmarked) [compound 6]
IC50 ([3]; ref Stotani et al., 2019): 119 µM
